T/C data for 17 compounds are collected here from PubChem BioAssay AID328 (DTP/NCI, 2004).

The assay relates to BDF1 mice, P388 leukemia ip, median survival T/C. Nature of the assay: NCI In Vivo Anticancer Drug Screen. Data for tumor model P388 Leukemia (intraperitoneal) in B6D2F1 (BDF1) mice. The conditions noted are these: endpoint: median survival time, higher = longer survival. An outline of the steps:
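Each value expresses how treatment altered survival: treated-mouse outcome over vehicle-mouse outcome, both groups bearing the transplanted tumour.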

Setting [1] is: dose: 100.0 mg/kg/injection, schedule: Q01DX009 (ip), vehicle: saline with Tween-80.
The mark [2] stands for this setting: dose: 100.0 mg/kg/injection, schedule: Q04DX003 (ip), vehicle: saline with Tween-80.
[3] abbreviates: dose: 100.0 mg/kg/injection, schedule: Q04DX003 (ip), vehicle: saline.
[4] abbreviates: dose: 200.0 mg/kg/injection, schedule: Q01DX009 (ip), vehicle: saline with Tween-80.
The mark [5] stands for this setting: dose: 200.0 mg/kg/injection, schedule: Q04DX003 (ip), vehicle: saline with Tween-80.
Where [6] appears, read: dose: 400.0 mg/kg/injection, schedule: Q04DX003 (ip), vehicle: saline with Tween-80.
[7] abbreviates: dose: 100.0 mg/kg/injection, schedule: Q01DX009 (ip), vehicle: saline.
Setting [8] is: dose: 200.0 mg/kg/injection, schedule: Q01DX009 (ip), vehicle: saline.
Where [9] appears, read: dose: 200.0 mg/kg/injection, schedule: Q04DX003 (ip), vehicle: saline.
Where [10] appears, read: dose: 400.0 mg/kg/injection, schedule: Q04DX003 (ip), vehicle: saline.
The mark [11] stands for this setting: dose: 50.0 mg/kg/injection, schedule: Q01DX009 (ip), vehicle: saline with Tween-80.

Several values for one entry are separate records, joined by “and”; a condition that tells them apart may be missing. Equal entries are not always repeated. Toxic doses and inconclusive results are not listed. Positions of bridges follow the written chain, without caps; N, C: chain ends. Non-standard residues stand in square brackets, D forms with d. Residues, ends and D or L forms follow the SMILES beside them. NMeV = CN[CH](C(=O)O)C(C)C; Sar = CNCC(=O)O

For the compound `O=C(O)c1c(I)c(I)c(I)c(I)c1C(=O)c1ccccc1`, the T/C (dose: 44.0 mg/kg/injection, schedule: Q04DX003 (ip), vehicle: saline) is 109 % of control; the T/C (dose: 67.0 mg/kg/injection, schedule: Q04DX003 (ip), vehicle: saline with Tween-80) is 104 % of control; the T/C (dose: 67.0 mg/kg/injection, schedule: Q04DX003 (ip), vehicle: saline) was 104 % of control; the T/C under setting [1] is 111 % of control; the T/C under setting [2] is 104 % of control; the T/C under setting [3] was 118 % of control. Also, the T/C was 109 % of control (dose: 150.0 mg/kg/injection, schedule: Q04DX003 (ip), vehicle: saline with Tween-80); 113 % of control (dose: 150.0 mg/kg/injection, schedule: Q04DX003 (ip), vehicle: saline); 111 % of control under setting [4]; 110 % of control under setting [5]; 120 % of control under setting [6].

Take `O=C(/C=C\c1ccc2c(c1)OCO2)/C=C/c1ccc2c(c1)OCO2`: the T/C reads like this: (dose: 100.0 mg/kg/injection, schedule: Q01DX009 (ip), vehicle: Klucel (hydroxypropylcellulose) (HPC)) 104 % of control; (dose: 100.0 mg/kg/injection, schedule: Q04DX003 (ip), vehicle: saline sonified) 100 % of control; (dose: 200.0 mg/kg/injection, schedule: Q01DX009 (ip), vehicle: Klucel (hydroxypropylcellulose) (HPC)) 100 % of control; (dose: 200.0 mg/kg/injection, schedule: Q04DX003 (ip), vehicle: saline sonified) 109 % of control; (dose: 400.0 mg/kg/injection, schedule: Q01DX009 (ip), vehicle: Klucel (hydroxypropylcellulose) (HPC)) 95 % of control; (dose: 400.0 mg/kg/injection, schedule: Q04DX003 (ip), vehicle: saline sonified) 100 % of control.

`CC(=O)CC(Cl)(C(F)(F)F)C(F)(F)F`: the T/C reads like this: (dose: 50.0 mg/kg/injection, schedule: Q04DX003 (ip), vehicle: saline with Tween-80) 100 % of control; under setting [2], 100 % of control; under setting [5], 109 % of control.

For `C[C@]12CC[C@H](OC3OC(CO)C(O)C(O)C3O)C[C@H]1CC[C@@H]1[C@@H]2CC[C@]2(C)[C@@H](C3=CCOC3=O)CC[C@]12O` (stereo not given in full), the T/C (dose: 0.1 mg/kg/injection, schedule: Q01DX010 (ip), vehicle: saline) was 110 % of control; the T/C (dose: 0.2 mg/kg/injection, schedule: Q01DX010 (ip), vehicle: saline) is 105 % of control; the T/C (dose: 0.25 mg/kg/injection, schedule: Q01DX010 (ip), vehicle: saline) was 100 % of control; the T/C (dose: 0.4 mg/kg/injection, schedule: Q01DX010 (ip), vehicle: saline) is 105 % of control; the T/C (dose: 0.5 mg/kg/injection, schedule: Q01DX010 (ip), vehicle: saline) is 100 % of control; the T/C (dose: 0.8 mg/kg/injection, schedule: Q01DX010 (ip), vehicle: saline) was 100 % of control. In addition, the T/C (dose: 1.0 mg/kg/injection, schedule: Q01DX010 (ip), vehicle: saline) was 100 % of control.

For the compound `COc1cccc(CC(N)=O)c1OC`, the T/C (dose: 25.0 mg/kg/injection, schedule: Q01DX009 (ip), vehicle: saline) is 99 % of control; the T/C (dose: 50.0 mg/kg/injection, schedule: Q01DX009 (ip), vehicle: saline) was 99 % of control; the T/C (dose: 50.0 mg/kg/injection, schedule: Q04DX003 (ip), vehicle: saline) was 109 % of control; the T/C under setting [7] was 97 % of control; the T/C under setting [3] was 87 % of control and 99 % of control; the T/C under setting [8] was 92 % of control. In addition, the T/C reads like this: under setting [9], 90 % of control and 94 % of control; under setting [10], 100 % of control.

For `Oc1ccccc1-c1nnc2sc3c(Cl)c4nn5c(-c6ccccc6O)nnc5sc4c(Cl)c3nn12`, the T/C is 98 % of control under setting [11], 98 % of control under setting [1] and 96 % of control under setting [4].

For `C=CC12COC(=O)C(=C)C1C(O)C(C(=C)C(=O)OC)C(O)C2` (stereo not given), the T/C is, setting by setting: (dose: 0.5 mg/kg/injection, schedule: Q01DX010 (ip), vehicle: steriod suspending solution) 100 % of control; (dose: 1.0 mg/kg/injection, schedule: Q01DX010 (ip), vehicle: steriod suspending solution) 109 % of control; (dose: 2.0 mg/kg/injection, schedule: Q01DX010 (ip), vehicle: steriod suspending solution) 100 % of control; (dose: 4.0 mg/kg/injection, schedule: Q01DX010 (ip), vehicle: steriod suspending solution) 122 % of control; (dose: 10.0 mg/kg/injection, schedule: Q01DX010 (ip), vehicle: steriod suspending solution) 109 % of control.

As for `O=C(Nc1ccc([N+](=O)[O-])cc1)Nc1ccc([N+](=O)[O-])cc1` (tested in a mixture with another compound), the T/C under setting [7] is 109 % of control; the T/C under setting [3] is 112 % of control and 104 % of control; the T/C under setting [8] was 122 % of control; the T/C under setting [9] was 100 % of control and 91 % of control; the T/C (dose: 400.0 mg/kg/injection, schedule: Q01DX009 (ip), vehicle: saline) was 118 % of control; the T/C under setting [10] was 112 % of control and 100 % of control.

Take `CSc1nc2n(C)cc(C)cc-2c(=O)n1`: the T/C (dose: 100.0 mg/kg/injection, schedule: Q01DX001 (ip), vehicle: suspension in saline) was 90 % of control.

Consider `CCCCOC(=O)C(N)Cc1ccc(OC)c(N(CCCl)CCCl)c1` (stereo not given), for which the T/C reads like this: (dose: 3.0 mg/kg/injection, schedule: Q04DX003 (ip), vehicle: saline) 250 % of control; (dose: 6.0 mg/kg/injection, schedule: Q04DX003 (ip), vehicle: saline) 108 % of control.

As for `CCOC(=O)C(Br)c1cccc(OC)c1` (stereo not given), the T/C under setting [2] is 100 % of control, the T/C under setting [5] was 100 % of control and the T/C under setting [6] was 110 % of control.

`COc1ccc2c(c1)N(C(=O)N(CCOC(=O)Nc1ccccc1)CCOC(=O)Nc1ccccc1)c1ccccc1S2`: the T/C is, setting by setting: (dose: 25.0 mg/kg/injection, schedule: Q01DX009 (ip), vehicle: saline with Tween-80) 95 % of control; under setting [11], 91 % of control.

As to `[Fe+5].[O-][Cl+3]([O-])([O-])O.[O-]c1ccccc1C=NCCN1CC1.[O-]c1ccccc1C=NCCN1CC1`, the T/C by setting is: under setting [2], 100 % of control and 120 % of control; under setting [5], 116 % of control.

Consider `COCCCn1c(C(Cl)(Cl)Cl)nn2c(=O)c3ccccc3nc2c1=O`, for which the T/C reads like this: under setting [1], 87 % of control; under setting [4], 90 % of control.

On to `O=c1nc(Oc2ccccc2)nc2ncccn12`, for which the T/C (dose: 12.5 mg/kg/injection, schedule: Q01DX009 (ip), vehicle: saline with Tween-80) is 121 % of control.

With `CC(C)C1NC(=O)C(N)C(C)OC(=O)C(C(C)C)N(C)C(=O)CN(C)C(=O)C2CCCN2C1=O` (stereo not given) (tested in a mixture with another compound) (H-TVP[Sar][NMeV]; ester 1-C; configuration not given here), the T/C reads like this: (dose: 0.05 mg/kg/injection, schedule: Q01DX009 (ip), vehicle: saline + alcohol) 201 % of control; (dose: 0.1 mg/kg/injection, schedule: Q01DX009 (ip), vehicle: saline + alcohol) 260 % of control; (dose: 0.2 mg/kg/injection, schedule: Q01DX009 (ip), vehicle: saline + alcohol) 531 % of control; (dose: 0.3 mg/kg/injection, schedule: Q04DX003 (ip), vehicle: saline + alcohol) 239 % of control; (dose: 0.4 mg/kg/injection, schedule: Q01DX009 (ip), vehicle: saline + alcohol) 96 % of control; (dose: 0.6 mg/kg/injection, schedule: Q04DX003 (ip), vehicle: saline + alcohol) 281 % of control and 187 % of control. The T/C (dose: 1.2 mg/kg/injection, schedule: Q04DX003 (ip), vehicle: saline + alcohol) was 107 % of control.

Take `COc1cccc(S(=O)c2ccc([N+](=O)[O-])c3no[n+]([O-])c23)c1` (stereo not given): the T/C (dose: 15.0 mg/kg/injection, schedule: Q01DX009 (ip), vehicle: saline with Tween-80) was 112 % of control.
